Assay results published in patent publication US5741781A, “Mercaptoalkanoyldipeptide compounds” (Adir et Compagnie, priority 1995, dated 1998).
Values belong to the compound of their own block, whether it stands above or below them.

Columns and labels:
[1] = target: neutral endopeptidase (NEP) (Homo sapiens, UniProt P08473); experiment: Inhibitory effect in vitro on neutral endopeptidase, [3H]-D-Ala2-Leu-encephalin as substrate; format: biochemical; settings: comment on Table I
[2] = target: neutral endopeptidase called "encephalinase" (Homo sapiens, UniProt P08473); settings: Nature, 228, (1980), 286-288; cited from earlier work
Sequence of neutral endopeptidase called "encephalinase" (P08473 whole entry): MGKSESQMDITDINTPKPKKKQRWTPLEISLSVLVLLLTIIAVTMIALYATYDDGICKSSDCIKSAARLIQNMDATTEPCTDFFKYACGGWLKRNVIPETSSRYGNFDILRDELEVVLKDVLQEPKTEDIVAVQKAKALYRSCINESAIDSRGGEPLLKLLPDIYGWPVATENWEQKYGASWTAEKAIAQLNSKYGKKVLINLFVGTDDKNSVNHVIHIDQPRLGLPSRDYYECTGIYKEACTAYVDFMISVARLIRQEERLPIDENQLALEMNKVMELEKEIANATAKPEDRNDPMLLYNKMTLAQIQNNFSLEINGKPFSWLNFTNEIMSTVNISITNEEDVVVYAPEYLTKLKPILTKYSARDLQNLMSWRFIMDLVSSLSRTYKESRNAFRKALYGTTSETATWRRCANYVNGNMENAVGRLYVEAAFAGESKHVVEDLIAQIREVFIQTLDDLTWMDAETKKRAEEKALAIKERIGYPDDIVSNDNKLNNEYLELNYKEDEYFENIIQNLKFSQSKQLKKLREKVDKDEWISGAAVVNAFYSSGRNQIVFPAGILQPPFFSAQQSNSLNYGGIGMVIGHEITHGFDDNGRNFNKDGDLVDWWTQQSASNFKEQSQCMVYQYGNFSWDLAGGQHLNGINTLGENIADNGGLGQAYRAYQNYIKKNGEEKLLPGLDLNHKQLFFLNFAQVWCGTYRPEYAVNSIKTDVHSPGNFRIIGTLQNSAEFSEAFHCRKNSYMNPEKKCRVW

[3] = cited from earlier work
[4] = target: T1, pulmonary peptidyldipeptidase A (ACE) (Mus musculus, UniProt P09470); experiment: Inhibition in vivo of pulmonary ACE, competition with [3H]trandolaprilate; settings: mice, p.o. single dose 2.6 × 10^-6 mol/kg (1.5 mg/kg)
T1 construct: from tissue; host or cells: mouse lung (in vivo, homogenised after sacrifice)
T1 sequence (P09470 35-1312): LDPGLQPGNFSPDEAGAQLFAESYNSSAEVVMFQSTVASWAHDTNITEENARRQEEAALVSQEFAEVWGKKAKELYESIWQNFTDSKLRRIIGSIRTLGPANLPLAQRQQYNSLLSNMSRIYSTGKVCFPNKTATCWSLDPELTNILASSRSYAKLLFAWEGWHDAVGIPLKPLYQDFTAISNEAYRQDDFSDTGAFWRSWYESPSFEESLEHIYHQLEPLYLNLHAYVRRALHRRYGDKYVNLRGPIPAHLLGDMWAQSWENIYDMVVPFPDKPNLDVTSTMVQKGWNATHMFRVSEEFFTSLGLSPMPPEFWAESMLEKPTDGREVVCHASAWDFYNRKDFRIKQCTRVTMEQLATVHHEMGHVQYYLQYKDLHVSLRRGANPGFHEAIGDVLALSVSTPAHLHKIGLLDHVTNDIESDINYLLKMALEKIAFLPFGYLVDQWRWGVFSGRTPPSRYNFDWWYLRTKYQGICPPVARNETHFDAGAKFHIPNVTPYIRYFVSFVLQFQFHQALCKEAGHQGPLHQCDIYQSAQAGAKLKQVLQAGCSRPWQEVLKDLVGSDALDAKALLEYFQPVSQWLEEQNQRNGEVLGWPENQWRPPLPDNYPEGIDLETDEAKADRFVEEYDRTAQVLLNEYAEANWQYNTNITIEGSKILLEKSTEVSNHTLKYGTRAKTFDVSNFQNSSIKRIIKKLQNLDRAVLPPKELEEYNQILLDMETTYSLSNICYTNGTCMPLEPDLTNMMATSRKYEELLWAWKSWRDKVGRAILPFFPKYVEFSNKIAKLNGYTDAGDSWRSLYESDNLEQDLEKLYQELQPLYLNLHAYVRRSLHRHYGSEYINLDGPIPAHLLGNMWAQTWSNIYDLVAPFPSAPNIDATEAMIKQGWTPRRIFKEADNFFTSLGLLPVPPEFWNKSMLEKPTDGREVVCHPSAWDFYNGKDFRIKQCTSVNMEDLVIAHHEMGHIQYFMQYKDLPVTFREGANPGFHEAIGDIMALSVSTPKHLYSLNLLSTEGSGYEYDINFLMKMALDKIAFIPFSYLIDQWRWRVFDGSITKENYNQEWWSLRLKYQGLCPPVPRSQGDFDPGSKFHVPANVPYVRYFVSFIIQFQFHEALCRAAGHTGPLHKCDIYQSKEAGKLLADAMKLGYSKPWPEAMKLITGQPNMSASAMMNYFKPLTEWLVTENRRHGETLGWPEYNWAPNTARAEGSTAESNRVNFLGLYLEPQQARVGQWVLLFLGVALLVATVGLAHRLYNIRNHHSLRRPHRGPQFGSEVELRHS
Experimental: (§1) The compounds are administrated per os to mice in a single dose. Inhibition of both enzymes is measured during a time period from 1 hour to 16 hours by competitive experiments with specific radiolabelled markers for each enzyme. After i.v. administration of a radiolabelled ACE inhibitor ([^3 H]trandolaprilate) or a radiolabelled NEP inhibitor ([^3 H]HACBOGIy), the animal is sacrificed and the lungs or the kidneys are removed. The organs are homogenized and the radioactivity associated to these homogenates is measured by liquid scintillation as described in the protocol by M. C. Fourni6-Zaluski et al. (J. Med. Chem., 37, (1994), 1070-1083).

[5] = tested on: spontaneously hypertensive male rat (SHR); experiment: Anti-hypertensive effect in the spontaneously hypertensive rat (SHR); format: in vivo
Experimental: The anti-hypertensive effect of the compounds of the invention is determined in vivo in the rat affected by a hypertension induced by the administration of DOCA salt (deoxycorticosterone acetate) and in the spontaneously hypertensive male rat (SHR), in accordance with the protocol described by Trapani et al. (J. Cardiovasc. Pharmacol., 14, (1989), 419-424). In that test the compounds of the invention are shown to be powerful anti-hypertensives and to be non-toxic.

[6] = target: T2, renal neutral endopeptidase (NEP) (Mus musculus, UniProt Q61391); experiment: Inhibition in vivo of renal NEP, competition with [3H]HACBOGIy; settings: mice, p.o. single dose 2.6 × 10^-6 mol/kg (1.5 mg/kg)
T2 construct: from tissue; host or cells: mouse kidney (in vivo, homogenised after sacrifice)
T2 sequence (Q61391 1-750): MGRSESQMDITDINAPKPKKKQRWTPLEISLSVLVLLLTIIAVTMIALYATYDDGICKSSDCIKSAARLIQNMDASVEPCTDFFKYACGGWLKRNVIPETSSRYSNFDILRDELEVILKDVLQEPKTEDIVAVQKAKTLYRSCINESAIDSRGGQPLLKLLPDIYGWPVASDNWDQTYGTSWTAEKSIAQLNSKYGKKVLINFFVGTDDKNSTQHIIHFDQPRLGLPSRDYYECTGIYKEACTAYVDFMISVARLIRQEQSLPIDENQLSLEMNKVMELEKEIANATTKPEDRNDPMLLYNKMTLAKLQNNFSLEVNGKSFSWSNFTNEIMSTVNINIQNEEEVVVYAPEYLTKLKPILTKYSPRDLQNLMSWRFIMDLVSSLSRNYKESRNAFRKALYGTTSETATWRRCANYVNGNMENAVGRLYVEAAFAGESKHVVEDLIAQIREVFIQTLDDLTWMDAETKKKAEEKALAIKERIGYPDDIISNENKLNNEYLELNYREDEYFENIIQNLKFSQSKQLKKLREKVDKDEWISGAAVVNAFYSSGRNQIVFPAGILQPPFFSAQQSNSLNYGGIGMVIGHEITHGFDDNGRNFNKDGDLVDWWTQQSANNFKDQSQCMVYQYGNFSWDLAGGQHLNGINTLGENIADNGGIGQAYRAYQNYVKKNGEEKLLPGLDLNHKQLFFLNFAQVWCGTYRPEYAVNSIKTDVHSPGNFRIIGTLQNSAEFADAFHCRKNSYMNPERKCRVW
Experimental: as §1

Sequence of neutral endopeptidase (NEP) (P08473 whole entry, species assumed): as the sequence (P08473 whole entry) above

Compound: O=C(O)CNC(=O)C(CS)Cc1ccccc1 (stereo not drawn) [thiorphan, N-(2-mercaptomethyl-3-phenyl-1-oxopropyl)glycine]
activity on NEP versus ACE in words [1]: exhibits an activity on neutral endopeptidase (NEP) only | inhibitory property, concentration [2]: nanomolar concentration | effect in clinical trials [3]: causes natriuresis and diuresis without any significant hypotensive effect and without decreasing cardiac overload

% inhibition pulmonary ACE ([4]; 1 h after administration): 90 ± 1% | % inhibition pulmonary ACE ([4]; 2 h after administration): 86 ± 3% | % inhibition pulmonary ACE ([4]; 4 h after administration): 87 ± 3% | % inhibition pulmonary ACE ([4]; 8 h after administration): 73 ± 3% | % inhibition pulmonary ACE ([4]; 16 h after administration): 20 ± 8% | % inhibition renal NEP ([6]; 1 h after administration): 75 ± 3% | % inhibition renal NEP ([6]; 2 h after administration): 70 ± 5% | % inhibition renal NEP ([6]; 4 h after administration): 74 ± 4% | % inhibition renal NEP ([6]; 8 h after administration): 60 ± 10% | % inhibition renal NEP ([6]; 16 h after administration): 48 ± 4%
Compound: O=C(NCC(=O)N1[C@@H](c2cccc(O)c2)CC[C@H]1C(=O)O)[C@@H](S)Cc1ccc(O)cc1 [Example 47, N-[N-(5R)-[(2S)-2-mercapto-3-(para-hydroxyphenyl)propanoyl]glycyl]5-(meta-hydroxyphenyl)-L-proline]
Systolic blood pressure (mm Hg) Treated animals ([5]; p.o. 25 mg/kg/day Day 1 to Day 6, n = 10, Day 0): 210 ± 5 mm Hg | Systolic blood pressure (mm Hg) Treated animals ([5]; p.o. 25 mg/kg/day Day 1 to Day 6, n = 10, Day 1): 212 ± 3 mm Hg | Systolic blood pressure (mm Hg) Treated animals ([5]; p.o. 25 mg/kg/day Day 1 to Day 6, n = 10, Day 2): 211 ± 1 mm Hg | Systolic blood pressure (mm Hg) Treated animals ([5]; p.o. 25 mg/kg/day Day 1 to Day 6, n = 10, Day 3): 210 ± 2 mm Hg | Systolic blood pressure (mm Hg) Treated animals ([5]; p.o. 25 mg/kg/day Day 1 to Day 6, n = 10, Day 4): 205 ± 2 mm Hg | Systolic blood pressure (mm Hg) Treated animals ([5]; p.o. 25 mg/kg/day Day 1 to Day 6, n = 10, Day 5): 205 ± 1 mm Hg | Systolic blood pressure (mm Hg) Treated animals ([5]; p.o. 25 mg/kg/day Day 1 to Day 6, n = 10, Day 6): 213 ± 2 mm Hg | Systolic blood pressure (mm Hg) Treated animals ([5]; p.o. 25 mg/kg/day Day 1 to Day 6, n = 10, Day 7): 209 ± 4 mm Hg | Systolic blood pressure (mm Hg) Treated animals ([5]; p.o. 25 mg/kg/day Day 1 to Day 6, n = 10, Day 8): 212 ± 2 mm Hg | Systolic blood pressure (mm Hg) Treated animals ([5]; p.o. 25 mg/kg/day Day 1 to Day 6, n = 10, Day 9): 208 ± 2 mm Hg | Systolic blood pressure (mm Hg) Treated animals ([5]; p.o. 25 mg/kg/day Day 1 to Day 6, n = 10, Day 10): 214 ± 1 mm Hg
